Entries after “also recorded” stand apart in the source; their conditions may differ. Like-named read-outs stand apart in the source and are kept apart here. Where no end group is shown, it is not given here.

Test [1] relates to GST-tagged FnbB. Briefly: Pull-down with GST-tagged FnbB, proteins from rabbit reticulocyte translation system. The test is classed as binding, S. aureus. The settings on record: cell-free protein translation system; GST alone as negative control.
Source text: Recombinant proteins were produced from the isolated plasmids from the PPI-partners in a rabbit reticulocyte-based translation system and additionally in E. coli cells. The produced recombinant proteins were used for pull-down and immunoprecipitation experiments.
Test [2] deals with T1, His-tagged ClfB protein (Staphylococcus aureus, UniProt Q99R07). The settings on record: 5 μg spotted onto membrane, His-tag antibody detection. As to the method: 7.1. […] This peptide was also synthesized.
Peptides were spotted onto a protein binding membrane and incubated with recombinant His-tagged ClfB protein. The irreversibly bound peptides can be targeted by additionally added ClfB. Bound ClfB protein is detected by a His-tag specific antibody (see FIG. 7).

The target in test [3] is T2, ClfB (Staphylococcus aureus, UniProt Q99R07). To be noted: Y2H-strain AH109, prey plasmid pGADT7.
Description: All constituents of this mini-library are tested directly in a binary manner against ClfB. • The identified interactions between ClfB and KRT6A, KRT8, and KRT5 (cf Table 1) were used for the experiment. • The interacting KRT-genes were compared in order to identify the plasmid harbouring the shortest KRT gene-fragment from the initial Y2H-screen. […] The clone with the smallest ClfB interacting DNA-insert is called clone clb10.1 • Clone clb10.1 was used as template for primer-design. PCR-primers were designed to lead to N-terminal truncations of the resulting protein. The clb10.1 DNA-template contains a 330 base pair DNA-fragment of the gene coding region of KRT8 (corresponds to a peptide of 110 amino acids). • The first primer-pair binds 45 bp downstream of the clb10.1 DNA-template resulting in a 45 by shortened DNA-fragment after PCR (the generated PCR-product contains a gene coding sequence of 285 bp). The resulting peptide encoded from this DNA is 95 amino acids. The PCR-product was cloned into an empty Y2H-prey plasmid, pGADT7. The plasmid was sequenced and the clone was named Frag1. • The second primer pair amplifies a PCR-product, which contains a gene coding sequence of 144 bp, which corresponds to a peptide of 48 amino acids. The PCR-product was cloned into an empty Y2H-prey plasmid, pGADT7. The plasmid was sequenced and the clone was named Frag2. • The third primer pair still amplifies the same gene coding sequence of KRT8, however the 3-primed untranslated region was removed. The 3-primed untranslated region is 241 bp long and not relevant for the interaction with ClfB protein. The removal of this 241 region was achieved by using a PCR-reverse primer, which binds upstream of this region in the DNA-template of clone 10.1. The resulting peptide, when translated from this PCR-product is still 48 amino acids. The PCR-product was cloned into an empty Y2H-prey plasmid, pGADT7. The plasmid was sequenced and the clone was named Frag2-CDS. • The fourth primer pair amplifies a PCR-product of 84 bp, which when translated into a protein will correspond to a peptide of 28 amino acids. The PCR-product was cloned into an empty Y2H-prey plasmid, pGADT7. The plasmid was sequenced and the clone was named Frag2-binding domain. • The fifth primer pair amplifies a PCR-product of 78 bp; when translated into a protein this fragment will correspond to a peptide of 26 amino acids. The PCR-product was cloned into an empty Y2H-prey plasmid, pGADT7. The plasmid was sequenced and the clone was named Frag3. • After PCR, the fragments were separated by gel-electrophoresis and the DNA was extracted from the gels by a commercial gel-extraction kit. The DNA was cut by restriction enzymes and cloned into the Y2H-plasmid pGADT7. The cloning reaction was introduced by plasmid transformation into E. coli. The transformation mixture was plated out onto plasmid-selective media containing the appropriate antibiotic. Growing colonies were inoculated into liquid media containing the same antibiotic, and the E. coli liquid culture was plasmid-purified and sequenced for confirmation. • Pure plasmid DNA from all constructs (Frag1, Frag2, Frag2-CDS, Frag2-binding domain, Frag3, clb10.1 clone, as well as full-length KRT6A, full-length KRT8, and full-length KRT5) were mixed to obtain a mini-library of different shortened fragments from the same interactor of ClfB.
Test [4] deals with T2, ClfB. The test is classed as cell-based, S. aureus. Set-up: expressed in transfected cells; host or cells: yeast Y2H reporter strain AH109. The settings on record: among 100 clones after two rounds of selection against ClfB.
The target in test [5] is binding of GST-tagged keratin fragment to ClfB-protein (Staphylococcus aureus, UniProt Q99R07). The settings on record: 1 μM peptide; densitometry, ImageJ. The text has this: 7.2. […] Relative changes in pulled-down GST-tagged keratin fragment is quantified by densitometry using a flatbed scanner and the ImageJ software, provided by Wayne Rasband, National Institutes of Health. (ImageJ: http://rsb.info.nih.gov/ij/) See FIGS. 8 and 9

Test [6] has as its system living S. aureus cells. Briefly: Adhesion assay with living S. aureus cells, crystal violet, absorbance at 595 nm. To be noted: 1 μg coated onto microwell-plates. The test is classed as cell-based. As to the method:
• All genes coding for the used recombinant proteins were cloned into the plasmid pDEST15. […] This protein served as negative control 1 • Affinity purified, recombinantly in E. coli produced GST-tagged Frag2-CDS (49 ng/μl). the amino acid sequence of Frag2-CDS is N-[…]-C (SEQ ID NO: 71) • Affinity purified, recombinantly in E. coli produced GST-tagged S. aureus protein, methionine sulfoxide reductase msrB, NCBI protein GI:54041496, was diluted to a final concentration of 30 ng/μl. This protein served as negative control 2 • Affinity purified, recombinantly in E. coli produced GST-tagged S. aureus protein, NADPH-dependent 7-cyano-7-deazaguanine reductase, NCBI protein GI:81781951, was diluted to a final concentration of 61 ng/μl. This protein served as negative control 3 • Human aortic elastin protein, 1 mg elastin was purchased from the company Elastin Products company, product number HA587 and solubilized in 1 ml H2O to get the final concentration of 1 μg/μl. This protein served as positive control 1 because elastin protein is known to bind to S. aureus. • Human fibrinogen protein was purchased from the company Enzyme Research Laboratories, product number FIB 1 3120L; […] was solubilized in 50 ml H2O to get the final concentration of 2 μg/μl. […]

The target of test [7] is T3, activation domain of yeast protein GAL4 (Saccharomyces cerevisiae, UniProt P04386).
T3 construct: expressed in transfected cells; host or cells: yeast Y2H reporter strain AH109
Briefly: Y2H specificity test against activation domain of GAL4. The test is classed as cell-based. To be noted: Y2H-strain AH109.

The target in test [8] is T4, binding domain of yeast protein GAL4 (Saccharomyces cerevisiae, UniProt P04386).
T4 construct: expressed in transfected cells; host or cells: yeast Y2H reporter strain AH109
Briefly: Y2H specificity test against binding domain of GAL4. The test is classed as cell-based. The settings on record: Y2H-strain AH109.

The target in test [9] is T5, Frag2-binding domain peptide (Homo sapiens, UniProt P05787).
T5 construct: expressed in transfected cells; host or cells: yeast Y2H reporter strain AH109
T5 sequence (P05787 437-464 limits assumed): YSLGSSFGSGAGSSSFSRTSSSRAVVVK
Briefly: Y2H test of peptide binding to the same peptide (homodimerization, stickiness). The test is classed as cell-based. The settings on record: Y2H-strain AH109.

In test [10] the target is T1, His-tagged ClfB protein. The settings on record: detection with anti-GST antibodies; listed as GST-tagged Keratin 8 protein fragment. The text has this:
(§1) 6.2.1. Recombinant Protein Production • The DNA-sequence coding for ClfB was cloned into a plasmid PET160 (a plasmid suitable for recombinant protein expression in E. coli and HIS-tag purification). The plasmid harbours a so-called HIS-tag, which is a DNA sequence coding for a stretch of six histidine residues. […]
(§2) 6.2.2. […] The GST-tagged peptide was purified by using a commercial GST-tag purification kit. • After several washing steps the remaining proteins are eluted from the magnetic beads • The eluted protein/peptide mixture is loaded on a SDS-page gel, separated, transferred onto a membrane, and probed with GST-tag specific antibodies and bound antibodies are detected by chemiluminescence signals on chemiluminescence films. • The following combinations of recombinant proteins/peptides were used in the pull-downs: • a) BSA+GST-tagged 48-aminoacid long peptide • b) His-tagged ClfB+GST-tagged 48-amino acid-peptide • c) Purified GST+GST-tagged 48-amino acid-peptide

Test [11] addresses BSA (Bos taurus, UniProt P02769). Briefly: In vitro pull-down with BSA coated beads. The test is classed as binding. To be noted: detection with anti-GST antibodies; listed as GST-tagged peptide of 48-amino acids.
Source text: as §1, §2

In test [12] the target is T6, GST (Schistosoma japonicum, UniProt P08515).
T6 construct: purchased
Description: In vitro pull-down with GST coated beads. The test is classed as binding. To be noted: detection with anti-GST antibodies; listed as GST-tagged peptide of 48-amino acids.
Source text: as §1, §2

For test [13], the target named is T2, ClfB. The settings on record: for Relative interaction strength to ClfB compared to the original binder: X-Gal overlay assays and growth strength on 3AT media, AH109 cells; for More beta galactosidase in comparison to the original binder: X-Gal overlay, equal numbers of cells.

T2 sequence (Q99R07 45-841): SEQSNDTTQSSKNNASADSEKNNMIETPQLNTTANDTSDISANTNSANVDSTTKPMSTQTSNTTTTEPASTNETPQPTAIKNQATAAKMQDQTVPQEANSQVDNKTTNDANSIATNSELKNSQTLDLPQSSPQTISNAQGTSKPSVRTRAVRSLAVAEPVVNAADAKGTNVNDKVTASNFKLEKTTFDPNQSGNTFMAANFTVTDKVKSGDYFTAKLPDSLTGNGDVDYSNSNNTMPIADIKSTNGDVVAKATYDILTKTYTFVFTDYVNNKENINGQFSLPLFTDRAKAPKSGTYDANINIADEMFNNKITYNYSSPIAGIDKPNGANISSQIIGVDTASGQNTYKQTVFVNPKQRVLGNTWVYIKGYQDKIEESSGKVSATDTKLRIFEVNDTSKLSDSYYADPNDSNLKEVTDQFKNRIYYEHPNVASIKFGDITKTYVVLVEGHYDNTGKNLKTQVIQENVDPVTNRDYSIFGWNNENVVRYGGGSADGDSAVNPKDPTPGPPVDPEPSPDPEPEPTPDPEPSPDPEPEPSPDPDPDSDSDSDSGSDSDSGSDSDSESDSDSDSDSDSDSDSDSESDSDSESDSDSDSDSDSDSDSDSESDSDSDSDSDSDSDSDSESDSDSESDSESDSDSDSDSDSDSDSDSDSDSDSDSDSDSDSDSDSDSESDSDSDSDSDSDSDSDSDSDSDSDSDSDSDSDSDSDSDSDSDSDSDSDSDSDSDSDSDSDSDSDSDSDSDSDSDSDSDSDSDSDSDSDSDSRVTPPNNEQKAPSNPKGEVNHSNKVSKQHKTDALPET
T1 sequence (Q99R07 45-841): as above
T6 sequence (P08515 whole entry): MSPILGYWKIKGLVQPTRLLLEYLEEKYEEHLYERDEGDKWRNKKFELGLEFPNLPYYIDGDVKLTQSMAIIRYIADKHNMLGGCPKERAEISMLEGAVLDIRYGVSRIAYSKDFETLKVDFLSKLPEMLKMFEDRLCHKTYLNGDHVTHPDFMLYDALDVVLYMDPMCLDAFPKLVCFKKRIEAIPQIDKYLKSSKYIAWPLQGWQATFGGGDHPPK
T4 sequence (P04386 11-38): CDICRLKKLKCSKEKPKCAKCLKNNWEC
binding of GST-tagged keratin fragment to ClfB-protein, sequence (Q99R07 45-841): as the sequence (Q99R07 45-841) above
T3 sequence (P04386 768-881): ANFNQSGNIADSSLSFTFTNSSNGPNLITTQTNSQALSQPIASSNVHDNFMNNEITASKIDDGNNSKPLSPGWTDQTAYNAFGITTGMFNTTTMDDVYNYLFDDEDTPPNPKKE

For the substance “CCT—beta: human protein interacting with FnbB, NCBI Protein GI 2559012”, the “Co-purified with GST-tagged FnbB” value in test [1] is listed as “could be co-purified”.

Regarding “EQRGELAIKDANAKLSELEAAL [control peptide, reference compound]”, the “Binding of recombinant ClfB to spotted peptide” value (“Binding of recombinant ClfB” below) in test [2] is “no binding was detected”.

With “QELMNVKLALDIEIATYRKLLEGEESRLESGMQNMSIHTKTTSGYAGGLSSAYGGLTSPGLSYSLGSSFGSGAGSSSFSRTSSSRAVVVKKIETRDGKLVSESSDVLPK [Clone 10.1]”, in test [3], the “Interaction capable with ClfB in the Y2H-system” value (“Interaction capable with ClfB” for short) is “Yes”. For the same substance, the “Identified X-times by sequencing” value in test [4] was found to be 8.

In the case of RAVVVKKIETRDGKLVSESSDVLPK [Frag 3], in [3], the “Interaction capable with ClfB” value is “No”. Also, the “Identified X-times by sequencing” value in test [4] is recorded as 0; in test [4] (listed as Frag3), “No single clone”.

SYSLGSSFGSGAGSSSFSRTS [IPEP-21SA]: the “Binding of recombinant ClfB” value in [2] is recorded as “could bind”. In addition, the “Competitive inhibition of binding of GST-tagged keratin fragment to ClfB-protein” value in test [5] is given as around 40%. The “Binding to living pathogen cells” value in [6] is recorded as “binds strongly”.

On to “TYRKLLEGEESRLESGMQNMSIHTKTTSGYAGGLSSAYGGLTSPGLSYSLGSSFGSGAGSSSFSRTSSSRAVVVKKIETRDGKLVSESSDVLPK [Frag 1]”, for which, in test [3], the “Interaction capable with ClfB” value is reported as “Yes”. For the same substance, in test [4], the “Identified X-times by sequencing” value was 12.

With “YSLGSSFGSGAGSSSFSRTSSSRAVVVK [Frag 2-binding domain]”, the “Interaction with the activation domain of GAL4 protein” value in test [7] was “neither interacts”. For the same substance, in test [8], the “Interaction with the binding-domain of GAL4 protein” value is “neither interacts”. Further, the “Interaction of the peptide with itself” value in test [9] was “does not interact with itself”. Further, the “Interaction capable with ClfB” value in test [3] is on record as “Yes”; in test [3] (listed as Frag2-binding domain), “still capable of interaction; also recorded: does only interact with ClfB protein”. In addition, in [4], the “Identified X-times by sequencing” value was 18.

Regarding “YSLGSSFGSGAGSSSFSRTSSSRAVVVKKIETRDGKLVSESSDVLPK (also: fused to a dimerising Fc or GST (not shown)) [GST-tagged Frag2-CDS, Frag2-CDS peptide recombinantly produced in E. coli with N-terminally fused glutathione S-transferase]”, in [10], the “Pulled down (co-purified) with His-tagged ClfB protein” value is “could only be pulled down when His-tagged recombinant ClfB was present”. The “Pulled down by BSA coated beads” value in [11] is given as “Neither BSA coated- nor GST coated magnetic beads could pull down; also recorded: neither a) BSA nor c) GST coated beads can pull-down”. The “Pulled down by GST coated beads” value in [12] is “Neither BSA coated- nor GST coated magnetic beads could pull down; also recorded: neither a) BSA nor c) GST coated beads can pull-down”. In addition, the “Binding of recombinant ClfB” value in test [2] is reported as “could bind”. In addition, the “Binding to living pathogen cells” value in test [6] is on record as “binds strongly”.

Regarding “YSLGSSFGSGAGSSSFSRTSSSRAVVVKKIETRDGKLVSESSDVLPK [Frag 2-CDS]”, the “Interaction capable with ClfB” value in [3] is recorded as “Yes”. Further, the “Identified X-times by sequencing” value in [4] and in [4] (listed as Frag2-CDS) was 28 in each case.

With “YSLGSSFGSGAGSSSFSRTSSSRAVVVKKIETRDGKLVSESSDVLPK [Frag 2]”, in [3], the “Interaction capable with ClfB” value was “Yes”. Further, the “Identified X-times by sequencing” value in [4] is 25.

As for “YSLGSSFGSGAGSSSLGRTSSSRAVVVK [stronger binder]”, in test [13], the “Relative interaction strength to ClfB compared to the original binder” value is given as “binds with increased affinity” and the “More beta galactosidase in comparison to the original binder” value was “at least 50%”.

Take “YSLGSSFGSGAGSSSSSRTSPSRAVVVK [more stronger binder]”: in test [13], the “Relative interaction strength to ClfB compared to the original binder” value was “binds with increased strength” and the “More beta galactosidase in comparison to the original binder” value is listed as at least 100%.

In the case of “lysosomal sialidase NEU 1: human protein interacting with FnbB, NCBI Protein GI 30583251”, the “Co-purified with GST-tagged FnbB” value in test [1] is given as “could be co-purified”.

Source of the values: patent US20100216191A1, “Method for Manufacturing a Modified Peptide” (PROCOMCURE BIOTECH GMBH, priority 2007, published 2010).
